From patent US20230414764A1, “Template Assembly by Proximity-Enhanced Reactivity via Metabolic Labeling” (The General Hospital Corporation, priority 2020, published 2023)
“And” between values parts separate entries of the source, which are not always exact repeats. Equal values may be shown once.

Experiments:
HeLa cells [1] = experiment: Detection of cell-surface template on AzNAM-labeled HeLa cells with bi-labeled FAM complementary probe, flow analysis; format: cell-based, human; conditions: AzNAM-treated HeLa cells with surface template; 800 pmol probe, 30 minutes
Source text: Specific cell surface template (positioned by means of click chemical reactions with metabolically derived surface AzNAM; as described in Example 3) can be detected with alternate methods. One such approach uses probe nucleic acid molecules that are complementary to the template of interest, where both 5′- and 3′-ends of such probes are both modified with a fluorescent group, such as FAM.
For example, HeLa cells with surface template of the same sequence as in Example 3 but with a DNA backbone were treated with a 5′/3′ bi-labeled complementary probe of sequence: […] (SEQ ID NO:72). The same cells were also treated with a control bi-labeled scrambled oligonucleotide of sequence CTT […] (SEQ ID NO:73). For treatments, 10^5 washed AzNAM-labeled HeLa cells in 100 μl of serum-free RPMI 1640 medium were incubated with 800 pmol of complementary or scrambled bi-labeled oligonucleotides for 30 minutes at room temperature. Cells were centrifuged (3 minutes at 2000 rpm) and washed once with 500 μl of serum-free RPMI 1640 medium and once with the same volume of PBS. Cells were finally resuspended in 200 μl of PBS and subjected to standard flow analysis.

[2] = tested on: Jurkat cells (human T lymphoma); experiment: Metabolic labeling (AzNAM/DPEG-FAM) of Jurkat cells, flow cytometric analysis; format: cell-based
Method: Surface azide groups resulting from the metabolic labeling process react with the DBCO group (dibenzocyclooctyne) of DPEG-FAM, and were monitored by flow cytometry.
22 hr prior to harvest, cell media were supplemented with […] AzNAM or control solvent only (DMSO). After harvest and washing, cells (10^6 cells/ml) were treated with 2 mM DPEG-FAM, washed, and subjected to flow cytometric analysis. […] FIGS. 20A-20D show flow cytometric analysis of human Jurkat cells after treatment with 100 ng/ml human IFN-beta for three days, with addition of 100 μM AzNAM at 22 hr prior to harvest. Cells were treated with DPEG-FAM prior to flow analysis.
FIGS. 21A-21D show flow cytometric analysis of human Jurkat cells after treatment with 75 ng/ml human IFN-beta for 3 days, with addition of 100 μM AzNAM at 22 hr prior to harvest. Cells were treated with DPEG-FAM prior to flow analysis.
FIGS. 23A-23D show flow cytometric analysis of human Jurkat cells after treatment with 50 μM STING agonist 1 (STAG1) for 3 days, with addition of 100 μM AzNAM at 22 hr prior to harvest. Cells were treated with DPEG-FAM prior to flow analysis.

[3] = tested on: murine ovarian cancer cell line ID8; experiment: Metabolic labeling (AzNAM/DPEG-FAM) of ID8 cells, flow cytometric analysis; format: cell-based
Source text: For Examples 7-11, metabolic labeling was monitored by treatment of cultured cells with the sugar analog peracetylated N-azidoacetylmannosamine (AzNAM), followed after harvest with treatment with the bifunctional click/fluorescent compound DBCO-PEG3-FAM (DPEG-FAM). Surface azide groups resulting from the metabolic labeling process react with the DBCO group (dibenzocyclooctyne) of DPEG-FAM, and were monitored by flow cytometry.
The murine ovarian cancer cell line ID8 represent an example of a cell type giving a relatively low metabolic labeling response, as assessed by AzNAM/DPEG-FAM as usual, results shown in FIGS. 22A-22D. Subconfluent ID8 cells were treated with or without 100 ng/ml murine interferon-beta (mIFNβ), and then treated with AzNAM and DPEG-FAM in a similar manner as for the Jurkat cells of Examples 7 and 8. […] FIGS. 22A-22D show flow cytometric analysis of murine ID8 cells after treatment with 100 ng/ml murine IFN-beta for 3 days, with addition of 100 μM AzNAM at 22 hr prior to harvest. Cells were treated with DPEG-FAM prior to flow analysis.
The murine-specific STING agonist DMXAA (R&D Systems) was used to test ID8 cells with a similar experimental arrangement as for Example 9. […] FIGS. 24A-24D show flow cytometric analysis of murine ID8 cells after treatment with 20 μM murine STING agonist DMXAA for 3 days, with addition of 100 μM AzNAM at 22 hr prior to harvest. Cells were treated with DPEG-FAM prior to flow analysis.

HeLa cells [4] = experiment: Azide metabolic labeling of HeLa cells with AzNAM, reaction with DBCO-FAM, fluorescent plate reader; format: cell-based, human; conditions: AzNAM 10-125 μM, 20 hours, DBCO-FAM 10 μM, 96-well plate reader
Method: Initially, cells were cultured in a suitable culture vessel such that their level of confluency at the time of addition of the azide-modified sugar, AzNAM, was not more than 80%.
In particular, HeLa cells were plated in 6-well plates (2.5×10^4 cells/well) and incubated for 48 hours in DMEM-10% FBS medium in a standard 5% CO2 atmosphere. Medium from each well was removed, and each well was washed with 2 ml of phosphate buffered saline (PBS), and fresh DMEM-FBS (1 ml) added. Subsequently, varying amounts of AzNAM (solubilized in DMSO) were added to the wells in small (10 μl) volumes to produce the desired final concentrations in the range 10-125 μM (see, FIG. 1). After an additional 20 hours incubation, the medium in each well was removed, and the wells were washed with 2 ml of PBS, followed by addition of 1 ml of PBS. Then, a fluorescent azide reactive molecule, DBCO-FAM (Broadpharm), was directly added to each well to produce a final concentration of 10 μM.
Plates with added DBCO-FAM were protected from bright light and incubated for 1 hour at room temperature. Supernatants in each well were removed, and each well was washed twice with 2 ml of PBS. […] After pelleting and washing in PBS, cells were resuspended in 150 μl of PBS and counted. Defined numbers in 50 μl volumes in a 96-well Blackwell plate (Corning) were assayed for fluorescence in a fluorescent plate reader (Tecan).

HeLa cells [5] = experiment: Flow cytometry of AzNAM-labeled HeLa cells reacted with DBCO-FAM; format: cell-based, human; conditions: AzNAM 125 μM, 20 hours, versus cells receiving no azide-modified sugar
Method: In separate cultures, HeLa cells were added to wells of a 12-well plate at 10,000 cells/well, and cultured for 72 hours under normal conditions. The wells were washed with 1 ml of PBS, and 0.5 ml of DMEM-10% FBS was added. AzNAM was added to a final concentration of 125 μM, with cells receiving no azide-modified sugar as controls. After 20 hours, cells were harvested with CellStripper (250 μl/well), washed with PBS, and subjected to flow analysis.

HeLa cells [6] = experiment: Surface template / ligation-template (LT) qPCR assay on azide-labeled HeLa cells; format: cell-based, human; conditions: HeLa cells treated with greater than 6 μM of AzNAM
Source text: For example, a nuclease-resistant template (with a 2′-O-methyl RNA backbone) can be modified with a 5′ or 3′ DBCO group, allowing it to specifically react with azides on the surface of metabolically labeled cells. Following this, the template-bearing cells can be treated with two shorter “ligation template” (LT) oligonucleotides each complementary to contiguous regions of the template, and where one of the LT oligonucleotides bears a 5′-phosphate (LT1). After annealing, the 5′-phosphate of LT1 can be ligated with the 3′-hydroxyl on its partner LT (LT2) adjacent on the same template (see, FIG. 16). For this ligation, a ligase enzyme can be used that is compatible with modified nucleic acid backbones, such as Splint® Ligase (New England Biolabs). Since each LT oligonucleotide is also equipped with an additional priming site, the joined LT (1+2) sequence can be amplified by PCR, and can also easily be amenable to quantitation by qPCR. […]
To apply the surface template/LT assay to azide-labeled HeLa cells, cells were treated with several concentrations of AzNAM in 6-well plates at about 80% confluency. After 20 hours, cells were removed from the plate with CellStripper, washed with […] (SF-RPMI), and counted. […]
LT1 and LT2 oligonucleotides complementary to the surface template were added in equimolar quantities to a final concentration of 0.2 pmol/μl. […]

complementary oligonucleotide: 5′/3′ FAM bi-labeled probe complementary to surface template, SEQ ID NO:72 (DNA TCCAGATGTCTTTGCTTTTCTTCAGGACACA; 5' and 3' FAM labels, chemistry not fully specified)
fluorescent peak relative to cells incubated with control scrambled oligonucleotide (HeLa cells [1]): significantly shifted fluorescent peak

O=C(NCc1ccco1)c1ccc2c(c1)N(Cc1c(F)cccc1Cl)C(=O)CS2 [STAG1]
impact on control DMSO-treated cells ([2]; Jurkat, 50 μM STAG1 3 days): minimal
metabolic labeling enhancement relative to the untreated value ([2]; Jurkat, 50 μM STAG1 3 days): 1.2 fold
geometric mean fluorescence (GM) ([2]; Jurkats/AzNAM+STAG1: 50 μM STAG1 3 days, 100 μM AzNAM 22 hr prior to harvest): 325.69
geometric mean fluorescence (GM) ([2]; Jurkats/DMSO+STAG1: 50 μM STAG1 3 days, control solvent only): 1.47

Cc1ccc2c(=O)c3cccc(CC(=O)O)c3oc2c1C [DMXAA]
geometric mean fluorescence (GM) ([3]; ID8/AzNAM+DMXAA: 20 μM DMXAA 3 days, 100 μM AzNAM 22 hr prior to harvest): 33.73
geometric mean fluorescence (GM) ([3]; ID8/Ctrl+DMXAA: 20 μM DMXAA 3 days, control solvent only): 1.67
AzNAM/DPEG-FAM response enhancement relative to the untreated value ([3]; ID8, 20 μM DMXAA 3 days): 1.8 fold
effect on comparably-treated DMSO controls ([3]; ID8, 20 μM DMXAA 3 days): no effect

CC(=O)OC[C@H]1OC(OC(C)=O)[C@@H](NC(=O)CN=[N+]=[N-])[C@@H](OC(C)=O)[C@@H]1OC(C)=O (some centres unmarked) [AzNAM, peracetylated N-azidoacetylmannosamine]
cell-associated fluorescence (HeLa cells [4]): increased as a function of the levels of AzNAM
flow analysis peak shift (HeLa cells [5]): marked and well-demarcated peak shifts
increase over background in formation of the templated LT product (HeLa cells [6]): over an order of magnitude
geometric mean fluorescence (GM) ([3]; ID8/AzNAM (Ctrl): 100 μM AzNAM at 22 hr prior to harvest, no-treatment control, DPEG-FAM): 37.68 and 19.14

B1: mIFNβ: murine interferon-beta (protein, UniProt P01575 22-182, looked up)
Interferon beta: INYKQLQLQERTNIRKCQELLEQLNGKINLTYRADFKIPMEMTEKMQKSYTAFAIQEMLQNVFLVFRNNFSSTGWNETIVVRLLDELHQQTVFLKTVLEEKQEERLTWEMSSTALHLKSYYWRVQRYLKLMKYNSYAWMVVRAEIFRNFLIIRRLTRNFQN
geometric mean fluorescence (GM) ([3]; ID8/AzNAM+mIFNβ: 100 ng/ml murine IFN-beta 3 days, 100 μM AzNAM 22 hr prior to harvest): 80.58
geometric mean fluorescence (GM) ([3]; ID8/DMSO+mIFNβ: 100 ng/ml murine IFN-beta 3 days, control solvent only): 16.49
labeling change in control DMSO cells ([3]; ID8, 100 ng/ml mIFNβ 3 days): much reduced labeling increase
labeling enhancement of AzNAM-treated cells relative to the untreated value ([3]; ID8, 100 ng/ml mIFNβ 3 days): 2.1 fold
